# Laboratory results as given in patent publication US20260008760A1, “DIPEPTIDYL PEPTIDASE 1 INHIBITORS AND USES THEREOF” (Insmed Incorporated, priority 2024, published 2026).
# Where “and” joins values, the source holds several entries; their conditions need not be identical. Equal entries are not always repeated.
# How the values were obtained:
# active mouse DPP1 enzyme = biological target: T1, active mouse DPP1 enzyme (Mus musculus, UniProt P97821); assay: Mouse DPP1 Enzyme IC50 Assay; assay type: biochemical; details: active mouse DPP1 enzyme, H-Gly-Arg-AMC substrate, 10 minutes pre-incubation at 37° C., pH 5.5; average of n runs; read-out: Avg. IC50 (Mouse DPP1 enzyme IC50 value ranges)
# T1 construct: Each subunit is composed of an N-terminal fragment, a heavy chain and a light chain; purchased R&D Systems
# T1 sequence (P97821 25-134 limits assumed): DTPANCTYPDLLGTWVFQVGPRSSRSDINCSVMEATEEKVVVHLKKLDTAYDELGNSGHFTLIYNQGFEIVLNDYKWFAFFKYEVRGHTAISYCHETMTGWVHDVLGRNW
# T1 sequence (P97821 231-393 limits assumed): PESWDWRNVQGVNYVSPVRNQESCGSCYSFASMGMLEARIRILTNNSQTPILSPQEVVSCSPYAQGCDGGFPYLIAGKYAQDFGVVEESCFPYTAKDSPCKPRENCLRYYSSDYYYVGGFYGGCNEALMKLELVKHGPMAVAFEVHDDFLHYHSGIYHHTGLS
# T1 sequence (P97821 394-462 limits assumed): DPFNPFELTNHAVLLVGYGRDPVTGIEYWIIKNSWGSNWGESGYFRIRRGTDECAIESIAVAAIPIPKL
# Procedure: Example 96: Mouse DPP1 Enzyme IC50 Assay
# Test articles were applied to active mouse DPP1 enzyme (R&D Systems; Minneapolis, MN) in Assay Buffer (50 mM MES pH 5.5, 50 mM NaCl, 5 mM DTT) in a total reaction volume of 125 μL. 25 μL of compound in Assay Buffer plus […] was first added to 50 μL of active mouse DPP1 enzyme at a concentration of 62.5 pg/μL and allowed to pre-incubate for 10 minutes at 37° C. after which 50 μL of […] H-Gly-Arg-AMC substrate (Bachem; St. Torrance, CA) was added, giving final substrate concentration of 400 µM and a final DMSO concentration of […]. Substrate cleavage was measured for 90 minutes at 37° C., with fluorescence at Excitation/Emission 350/450 nm measured every 5 minutes. DPP1 concentration was interpolated based on its activity relative to a standard curve of recombinant active mouse DPP enzyme. IC50 values for each compound were calculated via the XLFit (IDBS Version 5.3.1.3) Add-On to Microsoft Excel using the four parameter fit equation y=(A+((B−A)/(1+((C/x)^D)))), which appears as equation number 205 (4 Parameter Logistic Model or Sigmoidal Dose-Response Model) in XLFit. Default constraints were used for each Parameter. IC50 was defined as the compound concentration at which 50% of enzyme activity was inhibited when compared to the no-compound control.
# In Table 2, *** represent average IC50≤5 nM, ** represents average IC50 in the range of 5-20 nM, and * represents average IC50 in the range of ≥20 nM, where the designations were made solely based on the average value without taking into account of the standard deviations.
# DPP1 in HL-60 cells [1] = biological target: T2, DPP1 in HL-60 cells (Homo sapiens, UniProt P53634); assay: DPP1 Cell IC50 assay; assay type: cell-based; set-up: host or cells: HL-60 cells; details: 60 min pre-incubation, H-Gly-Phe-AFC substrate, average of n runs, read-out: Avg. IC50 (DPP1 Cell IC50 value ranges)
# T2 sequence (P53634 25-463): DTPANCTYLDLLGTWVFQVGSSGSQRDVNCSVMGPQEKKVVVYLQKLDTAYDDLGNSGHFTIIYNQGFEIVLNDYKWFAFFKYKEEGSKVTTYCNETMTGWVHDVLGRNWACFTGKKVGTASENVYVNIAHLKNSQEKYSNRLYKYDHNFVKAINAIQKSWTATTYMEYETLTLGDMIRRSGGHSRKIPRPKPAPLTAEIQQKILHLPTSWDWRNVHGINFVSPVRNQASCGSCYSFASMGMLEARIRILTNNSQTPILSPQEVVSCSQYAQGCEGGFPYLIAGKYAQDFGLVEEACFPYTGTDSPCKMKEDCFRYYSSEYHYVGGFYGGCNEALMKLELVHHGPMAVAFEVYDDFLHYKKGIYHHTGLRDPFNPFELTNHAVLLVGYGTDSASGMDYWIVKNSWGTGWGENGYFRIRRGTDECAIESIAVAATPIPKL
# Summary of the method: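 HL-60 cells in PBS (5×10^5 live cells per mL) pre-incubated with compound (0.5% DMSO) 60 min at 37° C, 5% CO2, then H-Gly-Phe-AFC substrate (500 μM stock) added for 30 min. Fluorescence at 400/505 nm; % inhibition vs vehicle wells, IC50 from four-parameter logistic fit.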
# human DPP1 enzyme [2] = biological target: T3, human DPP1 enzyme (Homo sapiens, UniProt P53634); assay: Human DPP1 Enzyme IC50 Assay; assay type: biochemical; set-up: was first proteolytically processed into its mature form using recombinant human cathepsin L; purchased R&D Systems; details: activated recombinant human DPP1, 400 μM H-Gly-Arg-AMC, 10 minutes pre-incubation at 37° C., pH 6.0; average of n runs; read-out: Avg. IC50 (Human DPP1 enzyme IC50 value ranges)
# Summary of the method: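 Recombinant human DPP1, pre-activated with cathepsin L (pH 4.5), was preincubated with compound 10 min at 37 °C in MES pH 6.0, 50 mM NaCl, 5 mM DTT, 1% DMSO. Cleavage of 400 μM (final) H-Gly-Arg-AMC followed by fluorescence (350/450 nm) over 90 min at 37 °C; IC50 from four-parameter logistic fit versus no-compound control.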
# Target sequence in this assay (P53634 25-134 limits assumed): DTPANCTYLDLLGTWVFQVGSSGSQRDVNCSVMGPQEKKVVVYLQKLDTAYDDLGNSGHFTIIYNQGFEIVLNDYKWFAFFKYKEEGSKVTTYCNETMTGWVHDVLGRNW
# Target sequence in this assay (P53634 231-394 limits assumed): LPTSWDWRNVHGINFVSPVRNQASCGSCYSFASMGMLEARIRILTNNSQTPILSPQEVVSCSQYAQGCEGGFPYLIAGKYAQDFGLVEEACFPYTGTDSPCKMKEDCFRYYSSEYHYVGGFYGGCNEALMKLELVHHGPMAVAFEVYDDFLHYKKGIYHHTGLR
# Target sequence in this assay (P53634 395-463 limits assumed): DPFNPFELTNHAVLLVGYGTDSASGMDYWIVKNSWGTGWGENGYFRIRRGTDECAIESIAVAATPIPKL
# DPP1 in HL-60 cells [3] = biological target: T2, DPP1 in HL-60 cells; assay: DPP1 Cell Single-Point Percent Inhibition Testing; assay type: cell-based; set-up: host or cells: HL-60 cells; details: final compound concentration 5 nM, n = 1
# Summary of the method: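 HL-60 cells in unsupplemented RPMI preincubated 60 min at 37 °C with test article (5 nM final, 0.1% DMSO), then given cell-permeable H-Gly-Phe-AFC (100 μM final) for 30 min. Fluorescence at 400/505 nm; percent inhibition versus vehicle after subtracting cell-free background and 10 μM brensocatib non-specific signal.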
# human DPP1 enzyme [4] = biological target: T3, human DPP1 enzyme; assay: Human DPP1 Enzyme Single-Point Percent Inhibition Testing (HL-60 lysate); assay type: biochemical; set-up: A crude lysate of HL-60 cells (ATCC; Manassas, VA) was used as a source of human DPP1 enzyme; host or cells: HL-60 cells (crude lysate); details: final compound concentration of 10 nM, 400 μM H-Gly-Arg-AMC, n = 1
# Summary of the method: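 Enzyme source was HL-60 cell lysate in MES pH 6.0 buffer with NaCl and DTT, pre-incubated 10 min at 37° C with 10 nM compound (final, 1% DMSO). Cleavage of 400 μM H-Gly-Arg-AMC was followed at 350/450 nm over 90 min at 37° C, and percent inhibition was taken against vehicle wells.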
# Target sequence in this assay (P53634 25-463): as the sequence (P53634 25-463) above
IC50 (active mouse DPP1 enzyme) [nM],IC50 (DPP1 in HL-60 cells [1]),IC50 (human DPP1 enzyme [2]),inhibition at 0.005 µM (DPP1 in HL-60 cells [3]) [%],inhibition at 0.01 µM (human DPP1 enzyme [4]) [%],SMILES
,1 to 2.5 nM,5 to 15 nM,76.5 to 93.9,≥ 66.7,CO[C@@H]1CCNC[C@@H](C(=O)N[C@H](C#N)Cc2ccc(-c3ccc4cnn(C)c4c3)cc2)OC1 [Compound H5]
,> 2.5 nM and 1 to 2.5 nM,< 5 nM,≤ 76.5,≥ 66.7,COC1CNC[C@@H](C(=O)N[C@H](C#N)Cc2ccc(-c3ccc4nnn(C)c4c3)cc2)OC1 (stereo partly shown) [Compound H12]
,1 to 2.5 nM,5 to 15 nM and > 15 nM,≤ 76.5,40 to 66.7,C[C@@H]1NC[C@@H](C(=O)N[C@H](C#N)Cc2ccc(-c3ccc4cnn(C)c4c3)cc2F)OC[C@@H]1O [Compound H31]
,> 2.5 nM,5 to 15 nM,≤ 76.5,40 to 66.7,CN1CC[C@]2(C1)C(=O)OCc1ccc(-c3ccc(C[C@@H](C#N)NC(=O)[C@@H]4CNCCCO4)cc3)cc12 [Compound I2]
,> 2.5 nM,5 to 15 nM,≤ 76.5,≥ 66.7,CCCN1CCC2(CC1)SCCc1ccc(-c3ccc(C[C@@H](C#N)NC(=O)[C@@H]4CNCCCO4)cc3)cc12 [Compound I3]
,> 2.5 nM,5 to 15 nM,≤ 76.5,≥ 66.7,CN1CCC(N2CC[C@]3(COCc4ccc(-c5ccc(C[C@@H](C#N)NC(=O)[C@@H]6CNCCCO6)cc5)cc43)C2)CC1 [Compound I8]

# Further lines, the compound ahead of its results:
SMILES,IC50 (active mouse DPP1 enzyme) [nM],IC50 (DPP1 in HL-60 cells [1]),IC50 (human DPP1 enzyme [2]),inhibition at 0.005 µM (DPP1 in HL-60 cells [3]) [%],inhibition at 0.01 µM (human DPP1 enzyme [4]) [%]
"N#CC(Cc1cc2c(cc1F)-c1ccc(F)cc1CO2)NC(=O)[C@@H]1CNCCCCO1 (mixture of isomers) [Compound B16, (2S)—N-(1-cyano-2-{2,8-difluoro-6H-benzo[c]chromen-3-yl}ethyl)-1,4-oxazocane-2-carboxamide]",> 20,> 2.5 nM,> 15 nM,,
"N#Cc1ccc2c(c1)COc1cc(CC(C#N)NC(=O)[C@@H]3CNCCCCO3)c(F)cc1-2 (single isomer, unassigned) [Compound B9]",5 to 20,1 to 2.5 nM,5 to 15 nM and > 15 nM,,
"N#C[C@H](Cc1ccc(-c2ccc(S(F)(F)(F)(F)F)cc2)cc1)NC(=O)[C@@H]1CNCCCO1 [Compound 6, (S)—N—((S)-1-cyano-2-(4′-(pentafluoro-16-sulfaneyl)-[1,1′-biphenyl]-4-yl)ethyl)-1,4-oxazepane-2-carboxamide]",> 20,> 2.5 nM,> 15 nM,,
"N#Cc1ccc(-c2ccc(C[C@@H](C#N)NC(=O)[C@@H]3CNCCCO3)cc2)cc1C(F)(F)F [Compound 7, (2S)—N-[(1S)-1-cyano-2-[4′-cyano-3′-(trifluoromethyl)-[1,1′-biphenyl]-4-yl]ethyl]-1,4-oxazepane-2-carboxamide]",> 20,> 2.5 nM,> 15 nM,,
"N#Cc1ccc(-c2ccc(C[C@@H](C#N)NC(=O)[C@@H]3CNCCCO3)cc2)cc1C1CC1 [Compound 8, (2S)—N-[(1S)-1-cyano-2-{4′-cyano-3′-cyclopropyl-[1,1′-biphenyl]-4-yl}ethyl]-1,4-oxazepane-2-carboxamide]",> 20,> 2.5 nM,> 15 nM,,
"CN1CCN(Cc2ccc(-c3ccc(C[C@@H](C#N)NC(=O)[C@@H]4CNCCCO4)cc3)cc2)CC1 [Compound 9, (2S)—N-[(1S)-1-cyano-2-{4′-[(4-methylpiperazin-1-yl)methyl]-[1,1′-biphenyl]-4-yl}ethyl]-1,4-oxazepane-2-carboxamide]",> 20,> 2.5 nM,> 15 nM,,
"Cc1nc(-c2ccc(C[C@@H](C#N)NC(=O)[C@@H]3CNCCCO3)cc2)sc1C#N [Compound 10, (2S)—N-[(1S)-1-cyano-2-[4-(5-cyano-4-methyl-1,3-thiazol-2-yl)phenyl]ethyl]-1,4-oxazepane-2-carboxamide]",> 20,> 2.5 nM,> 15 nM,,
"Cc1csc(-c2ccc(C[C@@H](C#N)NC(=O)[C@@H]3CNCCCO3)cc2)n1 [Compound 11, (2S)—N-[(1S)-1-cyano-2-[4-(4-methyl-1,3-thiazol-2-yl)phenyl]ethyl]-1,4-oxazepane-2-carboxamide]",> 20,> 2.5 nM,> 15 nM,,
"N#C[C@H](Cc1ccc(-c2ccc(C(F)(F)F)cc2)cc1)NC(=O)[C@@H]1CNCCCO1 [Compound 12, (2S)—N-[(1S)-1-cyano-2-[4′-(trifluoromethyl)-[1,1′-biphenyl]-4-yl]ethyl]-1,4-oxazepane-2-carboxamide]",> 20,> 2.5 nM,> 15 nM,,
"CN1CCC2(CC1)OC(=O)c1ccc(-c3ccc(C[C@@H](C#N)NC(=O)[C@@H]4CNCCCO4)cc3)cc12 [Compound 14, (2S)—N-[(1S)-1-cyano-2-(4-{1′-methyl-3-oxospiro[2-benzofuran-1,4′-piperidin]-6-yl}phenyl)ethyl]-1,4-oxazepane-2-carboxamide]",5 to 20,> 2.5 nM,5 to 15 nM,,
"CN1CCN(S(=O)(=O)c2ccc(-c3ccc(C[C@@H](C#N)NC(=O)[C@@H]4CNCCCO4)cc3)cc2)CC1 [Compound 20, (2S)—N-[(1S)-1-cyano-2-[4′-(4-methylpiperazin-1-ylsulfonyl)-[1,1′-biphenyl]-4-yl]ethyl]-1,4-oxazepane-2-carboxamide]",> 20,> 2.5 nM,> 15 nM,,
"CN1CCN(S(=O)(=O)c2ccc(-c3ccc(C[C@@H](C#N)NC(=O)[C@@H]4CNCCCO4)c(F)c3)cc2)CC1 [Compound 21, (2S)—N-[(1S)-1-cyano-2-[3-fluoro-4′-(4-methylpiperazin-1-ylsulfonyl)-[1,1′-biphenyl]-4-yl]ethyl]-1,4-oxazepane-2-carboxamide]",> 20,> 2.5 nM,> 15 nM,,
"CCN1C(=O)Cc2ccc(-c3ccc(C[C@@H](C#N)NC(=O)[C@@H]4CNCCCO4)cc3)cc21 [Compound 32, (2S)—N-[(1S)-1-cyano-2-[4-(1-ethyl-2-oxo-3H-indol-6-yl)phenyl]ethyl]-1,4-oxazepane-2-carboxamide]",> 20,,,,
CCN1C(=O)Cc2ccc(-c3ccc(C[C@@H](C#N)NC(=O)[C@@H]4CN[C@@H](C)[C@@H](O)CO4)c(F)c3)cc21 [Compound G10],,> 2.5 nM,5 to 15 nM,≤ 76.5,40 to 66.7
CCN1C(=O)Cc2ccc(-c3ccc(C[C@@H](C#N)NC(=O)[C@@H]4CNCCCO4)cc3)cc21 [Compound G11],,> 2.5 nM,> 15 nM,≤ 76.5,≤ 40
CCN1C(=O)Cc2ccc(-c3ccc(C[C@@H](C#N)NC(=O)[C@@H]4CNCCCO4)c(F)c3)cc21 [Compound G12],,> 2.5 nM and 1 to 2.5 nM,5 to 15 nM,≤ 76.5,40 to 66.7
